Measured values from US4977189A, “Substituted guanidinedicarbonyl derivatives” (American Cyanamid Company, priority 1988, dated 1990).

Legend:
Royal Hart mice = assay: Hypoxic Survival Test; assay type: in vivo, mouse (Royal Hart); settings: 10% oxygen; for responders at 50 mg/kg / responders at 10 mg/kg / responders at 25 mg/kg / responders at 100 mg/kg / responders at 200 mg/kg: Mus musculus, ip, 5 min, 30 minutes prior, survival after 5 minutes, read-out: % Survivors; for responders at 50 mg/kg: 50 mg/kg intraperitoneally; for responders at 10 mg/kg: 10 mg/kg intraperitoneally; for responders at 25 mg/kg: 25 mg/kg intraperitoneally; for responders at 100 mg/kg: 100 mg/kg intraperitoneally; for responders at 200 mg/kg: 200 mg/kg intraperitoneally
Experimental: A useful in vivo test that measures how effectively central nervous system-acting drugs enhance survival in a hypoxic environment, presumably by improving the ratio of energy supply to demand is known as the Hypoxic Survival Test. […] Drugs are tested by intraperitoneally injecting groups of mice 30 minutes prior to placing them in a hypoxic mixture and measuring survival. The rationale of this test is that drugs which enhance survival under hypoxic conditions without concomitant, depression or sedative side effects, may do so by enhancing energy metabolism, or by preserving normal brain function under conditions of reduced energy metabolism. Given the dependence of the brain on a constant supply of energy, drugs which have this property may have many far-reaching therapeutic indications, including recovery from stroke and closed head injury, as well as reducing the deleterious effects of the aging central nervous system.
Groups of 20 Royal Hart mice (6 weeks of age) are injected intraperitoneally with test compound (1-200 mg/kg) 30 minutes prior to placing them in a hypoxic mixture (10% oxygen in 90% […]) and measuring survival after 5 minutes.
A separate group of 20 mice is injected intraperitoneally with saline solution (0.01 cc/g of body weight) and processed as described above.
Still another group of 20 mice is injected intraperitoneally with 0.125 mg/kg of physostigmine and processed as described above.

[1] = test system: Brain-Specific Receptors (3H-benzodiazepine binding); assay: Inhibition of the Binding of 3H-Benzodiazepine to Brain-Specific Receptors of Rats; design: species or system rat (male albino, Wistar strain; whole cortex); settings: 3H-diazepam (1.5 nM) or 3H-flunitrazepam (1.0 nM); rat cortex P2-fraction; 30 minutes in ice; test concentration not given
Description: A test utilized for the determination of anxiolytic activity is the measurement of the ability of test compounds to inhibit the binding of tritiated benzodiazepines to brain-specific recptors of warm-blooded animals. A modification of the method described by R. F. Squires, et al., Nature, 266, No. 21, pg 732 (April, 1977) and H. Mohler, et al., Science, 198, pg 849 (1977) was employed.
Male albino rats (Wistar strain, weighing 150-200 g each) were used. The test compounds were solubilized in either dimethylformamide, acetic acid, ethanol or hydrochloric acid.
Whole cortex of rats was homogenized gently in 20 volumes of ice-cold 0.32M sucrose, centrifuged twice at 1000 g for 10 minutes and then recentrifuged at 30,000 g for 20 minutes to produce a crude P2 -synaptosomal fraction. The P2 -fraction was either: (1) resuspended in twice the original volume in hypotonic 50 mM Tris.HCl (pH 7.4), or (2) resuspended in one-half the original volume in hypotonic 10 mM Tris.HCl (pH 7.4) and frozen (-20° C.) until time of use. Frozen P2 preparations were thawed and resuspended in four times the original homogenizing volume at time of assay.
The binding assay consisted of 300 μl of the P2 -fraction suspension (0.2-0.4 mg protein), 100 μl of test drug and 100 μl of ^3 H-diazepam (1.5 nM, final concentration) or ^3 H-flunitrazepam (1.0 nM, final concentration) which was added to 1.5 ml of 50 mM Tris.HCl (pH 7.4). Non-specific binding controls and total binding controls d 100 μl of diazepam (3 μM final concentration) and 100 μl of deionized water, respectively, in place of the test compound. Incubation for 30 minutes proceeded in ice and was terminated by filtration, under vacuum, through glass fiber filters. The filters were washed twice with 5 ml of ice-cold 50 mM Tris.HCl (pH 7.4) and placed in scintillation vials. After drying at 50°-60° C. for 30 minutes, 10 ml of diluent was added and the radioactivity determined in a scintillation counter.
Inhibition of binding was calculated by the difference between total binding and binding in the presence of test compound, divided by the total binding, X 100.

SMILES | % Inhibition [1] | responders at 100 mg/kg (Royal Hart mice) | also measured
NC(=O)c1ccc(NC(=NC(=O)c2ccccc2)NC(=O)C23CC4CC(CC(C4)C2)C3)cc1 [N-[[[4-(Aminocarbonyl)phenyl]amino](benzoylamino)methylene]tricyclo[3.3.1.1^3.7]decane-1-carboxamide] | – | – | responders at 50 mg/kg (Royal Hart mice): 42%
Cc1ccc(C(=O)N=C(NC(=O)c2ccc(Br)cc2)Nc2ccc(C(N)=O)cc2)cc1 [N-[[[4-(Aminocarbonyl)phenyl]amino][(4-bromobenzoyl)amino]methylene]-4-methylbenzamide] | 57% | – | –
CN(C)C(=O)c1ccc(NC(=NC(=O)c2ccccc2)NC(=O)c2ccccc2)cc1 [4-[[(Benzoylamino)(benzoylimino)methyl]amino]-N,N-dimethylbenzamide] | 14% | – | –
NC(=O)c1ccc(NC(=NC(=O)c2cccc(Br)c2)NC(=O)c2ccccc2)cc1 [N-[[[4-(Aminocarbonyl)phenyl]amino](benzoylamino)methylene]-3-bromobenzamide] | – | – | responders at 10 mg/kg (Royal Hart mice): 50%
NC(=O)c1ccc(NC(=NC(=O)c2ccc(Br)cc2)NC(=O)c2ccccc2)cc1 [N-[[[4-(Aminocarbonyl)phenyl]amino](benzoylamino)methylene]-4-bromobenzamide] | – | 43% | responders at 10 mg/kg (Royal Hart mice): 42%; responders at 25 mg/kg (Royal Hart mice): 60%
COc1cc(C(=O)N=C(NC(=O)c2ccccc2)Nc2ccc(C(N)=O)cc2)cc(OC)c1OC [N-[[[4-(Aminocarbonyl)phenyl]amino](benzoylamino)methylene]-3,4,5-trimethoxybenzamide] | – | – | responders at 10 mg/kg (Royal Hart mice): 50%; responders at 25 mg/kg (Royal Hart mice): 50%
Cc1cccc(C(=O)N=C(NC(=O)c2ccccc2)Nc2cccc(C(N)=O)c2)c1 [N-[[[3-(Aminocarbonyl)phenyl]amino](benzoylamino)methylene]-3-methylbenzamide] | 15% | – | –
COc1ccc(C(=O)N=C(NC(=O)c2ccc(F)cc2)Nc2ccc(C(N)=O)cc2)cc1 [N-[[[4-(Aminocarbonyl)phenyl]amino][(4-fluorobenzoyl)amino]methylene]-4-methoxybenzamide] | – | 42% | responders at 25 mg/kg (Royal Hart mice): 45%; responders at 50 mg/kg (Royal Hart mice): 60%
NC(=O)c1ccc(NC(=NC(=O)c2ccccc2)NC(=O)C=Cc2ccccc2)cc1 [N-[[[4-(Aminocarbonyl)phenyl]amino][(1-oxo-3-phenyl-2-propenyl)amino]methylene]benzamide] | – | 40% | –
CNC(=O)c1ccc(NC(=NC(=O)c2cccc(C)c2)NC(=O)c2cccc(C)c2)cc1 [N,N'[[4-[(Methylamino)carbonyl]phenyl]carbonimidoyl]bis[3-methylbenzamide]] | 17% | – | –
NC(=O)c1ccc(NC(=NC(=O)c2ccc(F)cc2)NC(=O)c2ccc(Br)cc2)cc1 [N-[[[4-(Aminocarbonyl)phenyl]amino][(4-bromobenzoyl)amino]methylene]-4-fluorobenzamide] | – | 44% | responders at 25 mg/kg (Royal Hart mice): 40%
Cc1cccc(C(=O)N=C(NC(=O)c2ccccc2)Nc2ccc(C(N)=O)cc2)c1 [N-[[[4-(Aminocarbonyl)phenyl]amino](benzoylamino)methylene]-3-methylbenzamide] | 33% | – | –
COc1ccc(C(=O)NC(=NC(=O)c2cccc(C)c2)Nc2ccc(C(N)=O)cc2)cc1 [N-[[[4-(Aminocarbonyl)phenyl]amino][(4-methoxybenzoyl)amino]methylene]-3-methylbenzamide] | – | 50% | responders at 10 mg/kg (Royal Hart mice): 50%; responders at 50 mg/kg (Royal Hart mice): 45%; responders at 200 mg/kg (Royal Hart mice): 45%
Cc1cccc(C(=O)N=C(NC(=O)c2cccc(C)c2)Nc2cccc(C(N)=O)c2)c1 [N,N'-[[3-(Aminocarbonyl)phenyl]carbonimidoyl]bis[3-methylbenzamide]] | 17% | – | –
CCN(CC)CCNC(=NC(=O)c1ccc(C(F)(F)F)cc1)NC(=O)c1ccc(C(F)(F)F)cc1 [N,N'-[[2-(Diethylaminoethyl]carbonimidoyl]bis[4-(trifluoromethyl)benzamide] | – | 65% | responders at 10 mg/kg (Royal Hart mice): 45%; responders at 50 mg/kg (Royal Hart mice): 70%; responders at 200 mg/kg (Royal Hart mice): 85%
COc1ccc(C(=O)N=C(NC(=O)c2ccc(C)cc2)Nc2ccc(C(N)=O)cc2)cc1 [N-[[[4-(Aminocarbonyl)phenyl]amino][4-methylbenzoyl)amino]methylene]-4-methoxybenzamide] | – | 43% | –
Cc1cccc(C(=O)NC(=Nc2ccc(C(=O)N(C)C)cc2)NC(=O)c2cccc(C)c2)c1 [4-[[Bis[(3-methylbenzoyl)amino]methylene]amino]-N,N-dimethylbenzamide] | 29% | – | –
COc1ccc(C(=O)NC(=NC(=O)c2ccc(C)cc2)Nc2ccccc2C(N)=O)cc1 [N-[[[2-(Aminocarbonyl)phenyl]amino][(4-methoxybenzoyl)amino]methylene]-4-methylbenzamide] | 10% | – | –
NC(=O)c1ccc(NC(=NC(=O)Cc2ccccc2)NC(=O)c2ccccc2)cc1 [N-[[[4-(Aminocarbonyl)phenyl]amino](benzoylamino)methylene]benzeneacetamide] | 22% | – | –
Cc1ccc(C(=O)NC(=NC(=O)c2cccc(C)c2)Nc2ccc(C(N)=O)cc2)cc1 [N-[[[4-(Aminocarbonyl)phenyl]amino][(4-methylbenzoyl)amino]methylene]-3-methylbenzamide] | 85% | – | –
CCCCCCCCNC(=O)c1ccc(NC(=NC(=O)c2cccc(C)c2)NC(=O)c2cccc(C)c2)cc1 [N,N'-[[4-(Octylamino)carbonyl]phenyl]carbonimidoyl]bis[3-methylbenzamide]] | 16% | – | –
NC(=O)c1ccc(NC(=NC(=O)c2cccs2)NC(=O)c2ccccc2)cc1 [N-[[[4-(Aminocarbonyl)phenyl]amino](benzoylamino)methylene]-2-thiophenecarboxamide] | – | – | responders at 10 mg/kg (Royal Hart mice): 50%; responders at 50 mg/kg (Royal Hart mice): 50%
CNC(=O)Oc1ccc2c(c1)[C@]1(C)CCN(C)[C@@H]1N2C [physostigmine, reference compound] | – | – | physostigmine treated mice that survive (Royal Hart mice; 0.125 mg/kg intraperitoneally, after 5 minutes, saline control mice 5-20%): 60-80%
COc1ccc(C(=O)N=C(NC(=O)c2ccc(OC)cc2)Nc2ccc(C(N)=O)cc2)cc1 [N,N'-[[4-(Aminocarbonyl)phenyl]carbonimidoyl]bis[4-methoxybenzamide]] | 17% | – | –
COc1ccc(C(=O)NC(=NC(=O)c2ccc(C(F)(F)F)cc2)Nc2ccc(C(N)=O)cc2)cc1 [N-[[[4-(Aminocarbonyl)phenyl]amino][(4-methoxybenzoyl)amino]methylene]-4-(trifluoromethyl)benzamide] | – | 47% | responders at 50 mg/kg (Royal Hart mice): 55%
NC(=O)c1ccc(NC(=NC(=O)c2ccc(C(F)(F)F)cc2)NC(=O)c2ccccc2)cc1 [N-[[[4-(Aminocarbonyl)phenyl]amino][benzoylamino]methylene]-4-(trifluoromethyl)benzamide] | – | – | responders at 50 mg/kg (Royal Hart mice): 45%
NS(=O)(=O)c1ccc(CNC(=NC(=O)c2ccccc2)NC(=O)c2ccccc2)cc1 [N,N'-[[[4-(Aminosulfonyl)phenyl]methyl]carbonimidoyl]bisbenzamide] | – | 35% | responders at 10 mg/kg (Royal Hart mice): 50%
Cc1cccc(C(=O)N=C(NC(=O)c2cccc(C)c2)Nc2ccccc2C(N)=O)c1 [N,N'-[[2-(Aminocarbonyl)phenyl]carbonimidoyl]bis[3-methylbenzamide]] | – | 48% | responders at 50 mg/kg (Royal Hart mice): 40%
